Measured values: ChEMBL document CHEMBL4354807, “Natural Product Albiziabioside A Conjugated with Pyruvate Dehydrogenase Kinase Inhibitor Dichloroacetate To Induce Apoptosis-Ferroptosis-M2-TAMs Polarization for Combined Cancer Therapy” (J Med Chem, 2019)
Active and inactive are the calls of the source. No cut-off for these calls is given here.

Legend:
HCT-116 = test: Anticancer activity against human HCT116 cells expressing PDK assessed as reduction in cell viability after 72 hrs by MTT assay; type: functional, cell-based; settings: HCT-116, 72 h
L02 = test: Cytotoxicity against human LO2 cells assessed as reduction in cell viability after 72 hrs by MTT assay; type: cell-based; settings: L02, 72 h
[1] = Toxicity in BALB/c nude mouse xenografted with human MCF7 cells assessed as mouse death at 10 mg/kg, iv administered every 2 days for 2 weeks measured after 14 days; type: organism-based; settings: in vivo, 336 h
4T1 = test: Anticancer activity against mouse 4T1 cells expressing PDK assessed as reduction in cell viability after 72 hrs by MTT assay; type: functional, cell-based; settings: 4T1, 72 h
MCF7 = test: Antitumor activity against human MCF7 cells xenografted in BALB/c nude mouse assessed as tumor growth inhibition at 10 mg/kg, iv administered every two days for two weeks measured after 14 days; type: functional, organism-based
[2] = Toxicity in BALB/c nude mouse xenografted with human MCF7 cells assessed as effect on body weight at 10 mg/kg, iv administered every 2 days for 2 weeks measured after 14 days; type: organism-based; settings: in vivo, 336 h
A-375 = test: Anticancer activity against human A375 cells expressing PDK assessed as reduction in cell viability after 72 hrs by MTT assay; type: functional, cell-based; settings: A-375, 72 h
[3] = Cytotoxicity against human HBMEC cells assessed as reduction in cell viability after 72 hrs by MTT assay; type: cell-based
[4] = molecular target: [Pyruvate dehydrogenase (acetyl-transferring)] kinase isozyme 1, mitochondrial (Homo sapiens) (UniProt Q15118); test: Inhibition of PDK1 (unknown origin) expressed in human MCF7 cells using PDK tide as substrate measured after 90 mins in presence of ATP by ADP-Glo luminescent kinase assay

SMILES	IC50 (HCT-116) [µM]	IC50 (L02) [µM]	Activity [1]	IC50 (4T1) [µM]	Activity (MCF7)	Activity [2]	IC50 (A-375) [µM]	IC50 [3] [µM]	inhibition [4]
O=c1[nH]cc(F)c(=O)[nH]1 [FLUOROURACIL]	26.1	29.5	Non-Toxic	28.1	Active	Non-Toxic	21.1	27.3	–
CC1(C)CC[C@]2(C(=O)O)CC[C@]3(C)C(=CC[C@@H]4[C@@]5(C)CC[C@H](O[C@@H]6O[C@H](CO[C@@H]7OC[C@H](O)[C@H](O)[C@H]7O)[C@@H](O)[C@H](O)[C@H]6NC(=O)CCl)C(C)(C)[C@@H]5CC[C@]43C)[C@@H]2C1	–	–	–	–	–	–	–	–	inactive
